These are literature values, as cited in paper PMC8216436, “Molecular docking and statistical optimization of taurocholate-stabilized galactose anchored bilosomes for the enhancement of sofosbuvir absorption and hepatic relative targeting efficiency” (Drug Delivery, 2020).

Molecules are shown by their SMILES. Some results are limits rather than exact numbers.

For series [1] the following is noted: 2017.
Series [2] relates to P-glycoprotein (P-gp). Also noted: method as in Shen et al., 2019. The settings on record: efflux from GIT membrane cells and hepatocytes; ref Shen et al., 2019.
Setting [3] is: oral, ref Rodríguez-Torres, 2013, Kirby et al., 2015, Cuenca-Lopez et al.

As to `CC(C)OC(=O)[C@H](C)N[P@](=O)(OC[C@H]1O[C@@H](n2ccc(=O)[nH]c2=O)[C@](C)(F)[C@@H]1O)Oc1ccccc1` [Sofosbuvir], in series [1] (setting [3]), the “administered dose absorbed through the portal circulation” value is on record as 36.4%, the “hepatic availability of the administered dose” value is 26.94% and the hepatic extraction is given as 74%. Moreover, the volume of distribution in series [1] (ref Bhatia et al., 2014, Reznik & Ashby) is 127 L. Where the note is “high solubility and low permeability, ref Kirby et al., 2015”, the “biopharmaceutics classification system class” value is given as “class III”. Moreover, for the setting “ref Amidon et al., 1995”, the partition coefficient result was “about 1.6” and the solubility was at least 2000 µg/mL. Besides, the pKa (weak acid, ref Amidon et al., 1995) was 9.6. Besides, the “P-glycoprotein (P-gp) substrate” value in series [2] is recorded as “substrate”.

As a reminder, the solubility is the concentration that dissolves in the medium under given conditions. One may read the pKa as the pH at which an ionisable group is half protonated.
